Laboratory results: US7354711B2, “Methods for inhibiting immunostimulatory DNA associated responses” (University of Iowa Research Foundation, priority 1997, dated 2008)

Key:
Type in all cases: cell-based, mouse
WEHI 231 cells [1] = assay: Inhibition of CpG-ODN 1760 protection against α-sIgM-induced inhibition of [3H] thymidine uptake
WEHI 231 cells [2] = assay: Protection by ODN against thapsigargin-induced DNA fragmentation; conditions: 0.1 μM quinacrine, 10 nM thapsigargin, 24 hours
Protocol: The DNA fragmentation assay was carried out generally as follows. WEHI 231 cells were incubated with 0.5 μCi/milliliter [^3H] thymidine for 3 hours, centrifuged, resuspended in 2 milliliters of fresh medium at 2×10^5/milliliter, and incubated in a 24-well plate with additions as indicated. After incubation for 16-18 hours, 1 milliliter aliquots of the cells were centrifuged, washed with 200 μliters PBS. This suspension was drawn into a pipette tip containing 25 μliters of 2% SDS, and the mixture was immediately ejected into a well of a 0.8% agarose TBE gel containing 0.5 μliter/milliliter ethidium bromide. The gel was electrophoresed for 1 hour at 65 volts, destained in water, and photographed under ultraviolet light. The lanes of the gel were cut into three approximately equal portions. The first portion included the gel well and the first 2 millimeters of the running lane. The second and third pieces were the remainder of the lane. The gel portions were melted in glass scintillation vials and mixed with a 20 milliliter of scintillation cocktail and counted in a scintillation counter. The amount of fragmented DNA (DNA in the second and third gel pieces) was expressed as a percentage of the total counts recovered in the lane. […]

7TD1 cells = assay: Inhibition of 7TD1 cell growth
Protocol: One particularly useful cell line for the assay of immunostimulatory DNA action is the mouse-mouse hybridoma plasma cell line 7TD1(ATTC #CRL 1851), which requires exoqenous IL-6 for growth, and has been used to characterize and assay IL-6 (Papadopolous et al., 1995. J. Clin. Lab. Anal. 9:234-7; Krakauer, 1993. J. Immunoassay 14:267-77).
The 7TD1 cells were grown in RPMI 1640 supplemented with 10% fetal bovine serum (heat inactivated at 65° C., 1 hour), 0.3 grams/Liter L-glutamine, 50 milligrams/Liter gentamycin, 0.05 mM 2-mercaptoethanol, and 10 units per milliliter murine IL-6 in a 37° C. humid atmosphere with 5% CO2. Viable 7TD1 cells were counted in a hemocytometer chamber in duplicate after dilution with 0.4% trypan blue.
The 7TD1 cells were incubated for five days and were washed twice with medium to remove IL-6, and resuspended at 2×10^4 per milliliter in medium. Cell counts were performed and the percent inhibition of growth was computed. The term “anti” refers to 40 nanograms/milliliter neutralizing antibody to IL-6.

[3] = 6 μg/mL ODN 1760, 0.1 μM compound
[4] = 6 μg/mL ODN 1760, 0.3 μM compound
[5] = 6 μg/mL ODN 1760, 1 μM compound
[6] = 10 μg/mL IL-6 + 0.1 μM compound
[7] = 10 μg/mL IL-6 + 0.3 μM compound

CCN(CC)CCCC(C)Nc1c2ccc(Cl)cc2nc2ccc(OC)cc12 (stereo not drawn) [quinacrine]
Block of CpG-ODN action on subsequent addition (FIG. 4) (WEHI 231 cells [1]; 0.1 μM quinacrine added 8 hours after the CpG-ODN): blocked the action of CpG-ODN
Block of the action of phosphodiester ODN (FIG. 4) (WEHI 231 cells [1]; 0.1 μM quinacrine, PD ODN 30 μM at 0 and 8 hours): effective in blocking
vs. Chloroquine, fold (WEHI 231 cells [1]; Table 3, 9-aminoacridines): 7.76 fold
Activity,-log10 (concentration (M) for half maximal inhibition of CpG-ODN effect on [3H] thymidine uptake in the presence of α-sIgM) (WEHI 231 cells [1]; Table 3, 9-aminoacridines, WEHI 231 cells): 7.85
Inhibition of the CpG-ODN effect (FIG. 1) (WEHI 231 cells [1]; at nanomolar concentrations, 10 μg/mL α-sIgM, 6 μg/mL ODN 1760): completely inhibited
Inhibition at increasing concentrations of ODN 1760 (non-competitive kinetics, FIG. 3) (WEHI 231 cells [1]; range of concentrations of ODN 1760 and quinacrine, 10 μg/mL α-sIgM): increasing the concentration of ODN 1760 did not overcome the inhibitory effect
Block of ODN 1760 protection against thapsigargin-induced DNA fragmentation (FIG. 7) (WEHI 231 cells [2]): blocked the protective effect
7TD1 cells/μL (7TD1 cells; [3]): 20 cells/μL
% Growth Inhibition (7TD1 cells; [3]): 95%
7TD1 cells/μL (7TD1 cells; [4]): 20 cells/μL
% Growth Inhibition (7TD1 cells; [4]): 95%
7TD1 cells/μL (7TD1 cells; [5]): 15 cells/μL
% Growth Inhibition (7TD1 cells; [5]): 96.3%
7TD1 cells/μL (7TD1 cells; [6]): 707 cells/μL
% Growth Inhibition (7TD1 cells; [6]): 20.2%
7TD1 cells/μL (7TD1 cells; [7]): 595 cells/μL
% Growth Inhibition (7TD1 cells; [7]): 32.9%
7TD1 cells/μL (7TD1 cells; 10 μg/mL IL-6 + 1 μM compound): 587 cells/μL
% Growth Inhibition (7TD1 cells; 10 μg/mL IL-6 + 1 μM compound): 33.8%
Effect on IL-6-induced growth (7TD1 cells; 7TD1 cells, IL-6): little effect
Effect on growth stimulation by CpG-ODN (7TD1 cells; 7TD1 cells, ODN 1760): blocked
